Measurements as given in patent publication US7291710B2, “Detection of spectrin and spectrin proteolytic cleavage products in assessing nerve cell damage” (priority 2002, dated 2007).
Where a SMILES comes first, the peptide text is derived from it.

How the values were obtained:
[1] = test system: calpain and caspase-3 activation in septo-hippocampal cultures; experiment: Treatment of septo-hippocampal cultures with calpain, caspase and protein synthesis inhibitors; assay type: cell-based, rat; details: for antagonism of calpain and caspase-3 activation accompanying staurosporine-induced apoptosis: 37.5 μM CalpInh-II, 30 μM Z-D-DCB, pretreatment 1 hour
Protocol: (§1) Septo-hippocampal cultures. Eighteen day old rat fetuses were removed from deeply anesthetized dams. Septi and hippocampi were dissected in a dissection buffer (HBSS, with 4.2 mM bicarbonate, 1 mM pyruvate, 20 mM HEPES, 3 mg/ml BSA, pH 7.25). After rinsing in DMEM-DM, tissue was dissociated by trituration through the narrow pore of a flame-constricted Pasteur pipette. Dissociated cells were resuspended in DMEM with 10% fetal calf serum (DMEM-10S) and plated on 24-well poly-L-lysine coated plastic culture plates or 12 mm of German glass (Erie Scientific Co.) at a density of 4.36×10^5 cells/mL. Cultures were maintained in a humidified incubator in an atmosphere of 5% CO2 at 37° C. After 5 days of culture, the media was changed to DMEM-DM. […] Subsequent media changes were carried out three times a week. By day 10 in vitro, astrocytes formed a confluent monolayer beneath morphologically mature neurons.
Treatment of septo-hippocampal cultures with calpain, caspase, and protein synthesis inhibitors. Sister cultures were pretreated with either 37.5 μM calpain inhibitor-II (CalpInh-II) (Boehringer Mannheim), 30 μM of the pan-caspase inhibitor Z-D-DCB (obtained from Biochem), or 1 μg/mL of the protein synthesis inhibitor, cycloheximide (Sigma), […] The inhibitor concentrations provide optimal inhibition of calpains, caspase-3 (CPP32) proteases, and protein synthesis. […] This investigation also employed degradation of αII-spectrin to provide independent confirmation that the concentrations of CalpInh-II and Z-D-DCB used in this study to inhibit calpains and caspase-3 proteases. […] Following each experiment, cells were fixed for staining, or protein or DNA extraction was performed.
SDS-Polyacrylamide Gel electrophoresis and immunoblotting. At the end of an experiment, cells were harvested from 5 identical culture wells and collected in 15 ml centrifuge tubes and centrifuged at 3000 g for 5 min. The medium was removed and the pellet cells were rinsed with 1× DPBS. […]

[2] = test system: septo-hippocampal cultures; experiment: αII-spectrin immunoblot of septo-hippocampal cultures after maitotoxin or staurosporine insult; assay type: cell-based, rat; details: maitotoxin 30 min, 1 hr; staurosporine 3 hr; anti-α-spectrin antibody FG 6090
Protocol: as §1, with “By day 10 in vitro, astrocytes formed a confluent monolayer beneath morphologically mature neurons.” left out
Pharmacological treatment of septo-hippocampal cells with maitotoxin. Ten day old septo-hippocampal cultures were challenged with 0.01-2.0 nM of maitotoxin (Wako Products, Richmond, Va., Cat.# 131-10731) in DMEM-DM and cell viability was monitored at various post-injury time points. […]
Treatment of cultures with staurosporine. Ten day old septo-hippocampal cultures were challenged with 0.05-2.0 μM of staurosporine (Calbiochem, La Jolla, Calif., Cat. # 569397) in DMEM-DM and cell viability was monitored at various post-injury time points. […]

SMILES: O=C(O)CC(NC(=O)OCc1ccccc1)C(=O)COC(=O)c1c(Cl)cccc1Cl [Z-D-DCB, carbobenzoxy-Asp-CH2—OC (O)-2-6-dichlorobenzene]
- antagonism of calpain and caspase-3 activation accompanying staurosporine-induced apoptosis [1]: could antagonize calpain and caspase-3 activation

SMILES: C=CC[C@H](C)[C@H](C)C[C@@H](O)[C@H](O)[C@@H]1CC[C@@]2(C)O[C@@]3(C)C[C@@]4(C)O[C@H]5/C=C\C[C@H]6O[C@H]7C[C@H]8O[C@H]9C[C@@]%10(C)O[C@@](C)([C@@H]%11CC[C@H]%12O[C@@]%13(C)C[C@H]%14O[C@@]%15(C)C[C@H]%16O[C@@]%17(C)C[C@@H](O)[C@H]([C@@H]%18O[C@H]%19[C@H](O)[C@@H](O)[C@H](C[C@H](O)C[C@@H](O)[C@@H]%20O[C@H]%21[C@H](O)[C@@H](O)[C@H]([C@@H]%22O[C@@H]%23[C@H](O)[C@H]%24O[C@H]%25C[C@H]%26O[C@@H](C[C@H](O)[C@@H](O)[C@H]%27O[C@H]%28[C@H](O)[C@H]%29O[C@H]%30C[C@H]%31O[C@H]%32[C@@H](O)[C@@H](O)[C@H]([C@H](C)[C@H](O)[C@H](C)CC[C@H](OS(=O)(=O)O)[C@H](O)[C@H](C)C[C@@H](O)C(=C)/C(C)=C/CO)O[C@@H]%32[C@H](O)C[C@]%31(C)O[C@@H]%30C[C@]%29(C)O[C@@H]%28C[C@H]%27O)[C@H](OS(=O)(=O)O)[C@H](O)[C@@H]%26O[C@@H]%25C[C@@H]%24O[C@H]%23[C@H](O)[C@H]%22O)O[C@H]%21C[C@H]%20O)O[C@H]%19C[C@H]%18O)O[C@@H]%17[C@H](O)[C@]%16(C)O[C@@H]%15CC[C@]%14(C)O[C@@H]%13C[C@@H]%12O%11)[C@H](O)C[C@@H]%10O[C@]9(C)CC[C@]8(C)O[C@]7(C)C[C@@H]6O[C@@H]5C[C@@H]4O[C@@H]3C[C@@H]2O1 [maitotoxin]
- type of cell death and protease-specific SBDP detected [2]: necrotic cell death mediated by calpain (145 kDa SBDP) but not caspase-3 (120 kDa SBDP)

SMILES: C[C@@H]1C[C@@H]([C@H](O)CC2CC(=O)NC(=O)C2)C(=O)[C@@H](C)C1 [cycloheximide]
- effect on calpain and caspase activation and apoptotic cell death ([1]; 1 μg/mL cycloheximide): blocked calpain and caspase activation as well as apoptotic cell death

SMILES: CN[C@@H]1C[C@H]2O[C@@](C)([C@@H]1OC)n1c3ccccc3c3c4c(c5c6ccccc6n2c5c31)C(=O)NC4 [staurosporine]
- type of cell death and protease-specific SBDP detected [2]: apoptotic cell death mediated by caspase-3 (120 kDa SBDP) but not by calpain (145 kDa SBDP)

SMILES: CSCC[C@@H](C=O)NC(=O)[C@H](CC(C)C)NC(=O)[C@H](CC(C)C)NC(C)=O [CalpInh-II, N-acetyl-Leu-Leu-methioninal] (Ac-Leu-Leu-Met-aldehyde)
- antagonism of calpain and caspase-3 activation accompanying staurosporine-induced apoptosis [1]: could antagonize calpain and caspase-3 activation
